Where two headings read alike, the source gives them in different places.
Experiments:
[1] = tested on: N-Myc-Max binding to DNA E-box; assay: Biolayer interferometry (BLI), N-Myc-Max binding to biotinylated E-box DNA; assay type: biochemical; conditions: BLI, 0, 50, 100, 200 µM
Description: To confirm that 70619 could disrupt the binding of N-Myc-Max DBD to DNA, we performed a bio-layer interferometry (BLI) assay where we immobilized biotinylated E-box sequence on streptavidin sensors, and we evaluated recombinant N-Myc-Max binding to the DNA in the presence of increasing concentrations of VPC-70619. […] We observed a similar number of interactions when comparing the ratio of signal per nuclei in the presence or absence of the compound.
The bHLHLZ domain of N-Myc (amino acids 309–394) and Max (amino acids 12–93) protein sequences were cloned into pETDuet with an N-terminal 6×His. pETDuet-His-NMyc-Max was transformed and expressed in E. coli BL21 and induced with 0.5 mM isopropyl-β-D-thiogalactopyranoside (IPTG) at 16 °C overnight. The cultures were lysed by sonication and combined for purification by immobilized metal ion chromatography (IMAC) with nickel-nitrilotriacetic acid (Ni-NTA) resin. The bound proteins were eluted from the column with 20 mM Tris, pH = 8, 500 mM NaCl, 5% glycerol, 300 mM imidazole, 5 mM βMe, and 0.1 mM PMSF. Size exclusion chromatography with Superdex 75 was used to increase the purity of the N-Myc-Max protein sample. The purified protein complex was used in subsequent BLI and MST experiments.
Biotinylated-duplex DNA (Forward: 5′ Biotin-[…], Reverse: […]) was bound to the super-streptavidin (SSA) ForteBio Sensor in the assay buffer [20 mM Tris pH = 8, 150 mM NaCl, 5% glycerol, and 0.2 mM TCEP]. The protein solution was mixed with the serially diluted compound (70619) to a final concentration of 0.1 mg/mL of protein and 200 μM, 100 μM, and 50 μM for the compound. Sample containing N-Myc-Max protein alone was used as a control.

[2] = tested on: N-Myc-Max transcription activity (LNCaP-NMYC cells); assay: Myc transcription assay (Cignal Myc reporter, luciferase) in LNCaP-NMYC cells; assay type: cell-based
[3] = tested on: N-Myc-Max transcription activity (LNCaP-NMYC cells); assay: as above; assay type: cell-based; conditions: for IC50: Homo sapiens, LNCaP, Table 1, transcriptional assay in LNCaP cells overexpressing N-Myc, read-out: IC50; for transcription inhibition activity (in words): LNCaP-NMYC, screened at 10 µM and 5 µM
Protocol: To determine the optimal substitutions on the free phenyl ring, we used the active scaffold for a second substructure search against the ZINC15 database to identify a set of 181 analogues for further validation (VPC-70617 to -70799, presented in Supplementary Table S1). Compounds were tested for their inhibition of a N-Myc-Max luciferase transcription activity assay at 5 and 10 µM Figure 2a. Herein, we inspected all the proposed substitutions on the scaffold to discern the features required to construct a possible SAR model for inhibitors targeting N-Myc-Max/DBD complex (Figure 2b).
LNCaP-NMYC cells were transfected using TransIT-2020 transfection reagents per the manufacturer’s protocol. Cells were plated at a density of 10,000 cells per well of a 96-well plate. Following 24 h treatment with 5 µM or 10 µM of the compounds, the Myc reporter activity was measured using the Cignal Myc Reporter Assay Kit from Qiagen (#336841) (Hilden, Germany) per the manufacturer’s instructions.

[4] = Pharmacokinetics after IP and PO dosing; assay type: in vivo, male Balb/c mice; conditions: 10 mg/kg; for Tmax: 75:25 PG/PEG 400 formulation; for Cmax: 70551 in 75:25 PG/PEG 400, 70619 in 20:80 Kolliphor EL
Protocol: In order to characterize VPC-70619 as a drug candidate against N-myc, its pharmacokinetic (PK) characteristics were evaluated in Balb/c mice following intraperitoneal (IP) and peroral (PO) administrations. As presented in Figure 5, we determined the PK properties of VPC-70619 and compared it to the parental molecule, VPC-70551. […] The clearance of 70551 for PO delivery was extremely slow, and we could not determine the T1/2 in the experimental conditions used for this assay. […] Therefore, VPC-70619 was deemed to have appropriate efficacy in vivo, and a better pharmacokinetic profile due to higher bioavailability for both oral and intraperitoneal administration.
Bienta Enamine Biology Services (Kyiv, Ukraine) conducted PK studies according to the Enamine PK study protocols and Institutional Animal Care and Use Guidelines. The PK studies were reviewed and approved by the Bienta Animal Care and Use Committee (BACUC) under the project identification codes PK-VPC-112618 (approved 17 December 2018) and PK-VPC-101119 (approved 21 October 2019), for VPC-70551 and […], respectively. Evaluation of 70619 and 70551 was conducted in male Balb/c mice through intraperitoneal (IP) and peroral (PO) administration. Measurements were taken at six time points: 5, 15, 60, 120, 240, and 360 min for IP; 15, 30, 60, 120, 240, and 480 min for PO. Four mice were included in each treatment group for each time point; one mouse each for IP and PO was included as a control. Initial target administration for both IP and PO was 10 mg/kg dose level, 2 mg/mL dose concentration, and 5 mL/kg dose volume. Concentration of the compounds was evaluated in the plasma samples using an LC-MS/MS system.

[5] = Microsomal stability assay; assay type: in vitro ADME, Mouse; conditions: mouse liver microsomes, 1 µM compound
Protocol: A microsomal stability assay was performed using the Corning Gentest NADPH Regenerating System (Corning, #451220/41200) (Corning, NY, USA). Mouse liver microsomes (MLM) (Xenotech, M1000) (Kansas City, KS, USA) and compounds were diluted to a final concentration of 0.15 mg/mL and 1 μM respectively. These were prepared into a 500 μL solution with 100 mM potassium phosphate buffer (pH = 7.4). Imipramine was used as a control. NADPH solutions A and B were mixed in a 5:1 ratio, and 24 μL of the NADPH was added to each of the MLM/compound samples at 30 s intervals. At time points 10, 20, and 45 min, 100 μL of reaction was added to the stopping solution. Samples were centrifuged at 18,000× g and incubated at 4 °C for 10 min. Samples were then loaded onto a LC-MS 96-well plate for analysis.

HO15.19 cells = assay: Cell viability counter-screen (CellTiter-Glo), Myc-negative HO15.19; assay type: cell-based; conditions: for inhibition at 10 µM: Rattus norvegicus, HO15.19, 10 µM, Myc-negative specificity control
Protocol: (§1) The 54 compounds were tested at 10 µM for their inhibition of the IMR32 human neuroblastoma cell line, in which the MYCN gene is amplified and actively expressed (Table 3). HO15.19 cell line (Myc-negative) was used in parallel as a compound specificity control.
(§2) Viability of N-Myc positive (IMR32and NCI-H660) and negative (HO15.19) cells were determined using the CellTiter-Glo Luminescent Cell Viability Assay (Promega cat. G7570) (Madison, WI, USA). Cells were seeded into a 96-well white plate with a clear bottom: 10,000 cells per well for the IMR32 cells cultured in EMEM supplemented with 10% FBS, 2000 HO15.19 cells per well in Eagle’s minimum essential medium (EMEM) supplemented with 10% FBS, and 2000 cells per well for the NCI-H660 neuroendocrine cells cultured in RPMI supplemented 5% FBS, 1% Insulin-Transferrin-Selenium (Thermo Fisher, 41400-045), 10nM b-estradiol (Sigma, E8875), 10nM hydrocortisone (Sigma H0888) and 1% matrigel. Following 24 h incubation, the cells were treated with serial dilutions of the derivatives along with the respective parental compound starting at 25 μM for 72 h. Cell Titer Glo was added to each well at a ratio of 1:1 and incubated on a shaker at RT for 2 min. Luminescence and IC50 was measured with the TECAN InfiniteM200 plate reader (Männedorf, Switzerland).

IMR32 cells = assay: Cell viability (CellTiter-Glo), IMR32; assay type: cell-based; conditions: Homo sapiens, IMR-32
Protocol: as §1, §2

SMILES	IC50 [3] [µM]	inhibition at 25 µM [2] [%]	transcription inhibition activity (in words) [3]	inhibition at 10 µM (HO15.19 cells) [%]	inhibition at 10 µM (IMR32 cells) [%]	also measured
O=C(NNc1ccc(C(F)(F)F)cc1[N+](=O)[O-])c1cnccn1 [compound 70127]	1	106	strong Myc inhibitory activity	–	–	disruption of DNA binding to (N-)Myc-Max (in words) [1]: weakly disrupts DNA binding
FC(F)(F)c1cc(Br)cc(NC(=S)NCc2cccs2)c1 [compound 70495]	5	100	–	–	–	–
N#Cc1ccc(NNC(=O)c2ccc(C(F)(F)F)cc2)c(C(F)(F)F)c1 [compound 70551]	4	98	–	–	–	half-life ([4]; male, Balb/c, mouse, plasma, ip, read-out: plasma half-life (T1/2) IP): 5.53 h; Tmax ([4]; male, Balb/c, mouse, plasma, IP, read-out: Tmax IP (converted)): 1 h; Cmax ([4]; male, Balb/c, mouse, plasma, IP, read-out: Cmax IP): 6220 ng/mL; Tmax ([4]; male, Balb/c, mouse, plasma, PO, read-out: Tmax PO (converted)): 8 h; Cmax ([4]; male, Balb/c, mouse, plasma, PO, read-out: Cmax PO): 2600 ng/mL; adverse effects / signs of toxicity in PK animals ([4]; single dose IP or PO): No obvious adverse effects; microsomal half-life (T1/2) ([5]; listed as VPC-70551): 2.33 h; half-life at 1 μM ([5]; mouse, pH 7.4, mouse liver microsomes, read-out: microsomal half-life (T1/2)): 2.35 h
O=C(Nc1cccc(C(F)(F)F)c1)Nc1cccc(C(F)(F)F)c1 [compound 70511]	2	102	promising inhibitory activity	–	–	cytotoxicity in Myc-negative HO15.19 (in words) (HO15.19 cells; counter-screen): highly cytotoxic profile
N#Cc1ccc(NNC(=O)c2cc(OC(F)F)cc(OC(F)F)c2)c(C(F)(F)F)c1 [compound 70792]	–	–	maintained good transcription inhibition activity	79.5	84.9	–
N#Cc1ccc(NNC(=O)c2cc(Cl)cc(Cl)c2)c(C(F)(F)F)c1 [compound 70652]	–	–	very strong transcription inhibition	80.7	92.5	–
N#Cc1ccc(NNC(=O)c2ccc(F)c(Cl)c2)c(C(F)(F)F)c1 [compound 70680]	–	–	strong increase in inhibition activity	64	52.9	–
N#Cc1ccc(NNC(=O)c2cc(Cl)cc(C(F)(F)F)c2)c(C(F)(F)F)c1 [compound 70722]	–	–	very strong transcription inhibition	79.3	94.7	–
N#Cc1ccc(NNC(=O)c2ccc(Cl)cc2C(F)(F)F)c(C(F)(F)F)c1 [compound 70706]	–	–	activity was maintained	65.6	54.3	–
N#Cc1ccc(NNC(=O)c2ccc(F)c(C(F)(F)F)c2)c(C(F)(F)F)c1 [compound 70647]	–	–	strong increase in inhibition activity	70.9	88.6	–
N#Cc1ccc(NNC(=O)c2ccc(Cl)c(Br)c2)c(C(F)(F)F)c1 [compound 70622]	–	–	good inhibition at both concentrations tested	36.4	99.4	–
N#Cc1ccc(NNC(=O)c2c(O)cc(Cl)cc2Cl)c(C(F)(F)F)c1 [compound 70719]	–	–	recovered the inhibition activity	76.5	95	–
N#Cc1ccc(NNC(=O)c2cc(Cl)c(N)c(Cl)c2)c(C(F)(F)F)c1 [compound 70695]	–	–	better inhibition activity	41.2	77.1	–

Continued, in another order:

IC50 [3] [µM]	SMILES	inhibition at 25 µM [2] [%]	transcription inhibition activity (in words) [3]	inhibition at 10 µM (HO15.19 cells) [%]	inhibition at 10 µM (IMR32 cells) [%]	also measured
10	Fc1ccccc1CNC(=S)Nc1cccc(C(F)(F)F)c1 [compound 70465]	92	–	–	–	–
20	O=C(NCc1cnn(Cc2ccccc2)c1)[C@@H]1COc2ccccc2O1 [compound 70215]	92	–	–	–	–
15	C[C@H](CCc1ccccc1)NC(=O)[C@H]1CCCN(C(=O)CCc2c[nH]c3ccccc23)C1 [compound 70314]	93	–	–	–	–
20	O=C(CCN1C(=O)/C(=C\c2ccccc2)SC1=S)NCCc1c[nH]c2ccccc12 [compound 70388]	77	–	–	–	–
10	O=C(CCc1c[nH]c2ccccc12)Nc1nc2ccccc2[nH]1 [compound 70223]	103	–	–	–	–
9	Cc1cccc(-c2cc(C(=O)Nc3ccc(S(=O)(=O)N4CCCCC4)cc3)n[nH]2)c1O [compound 70390]	97	–	–	–	–
20	CC[C@@H]1Oc2cc(S(=O)(=O)N(C)CC(=O)N(C)Cc3ccccc3)c(C)cc2NC1=O [compound 70381]	74	–	–	–	–
